From PubChem BioAssay AID1996
Values after ≈ are worked out from the molar mass of the structure shown.

Conditions: buffer; pH 7.4; 200.0 µM

Row | Structure (SMILES) | solubility kinetic [µg/mL]
1 | CCCSc1ncnc2sc(C)c(C)c12 | 0.5 (≈ 2.1 µM)
2 | Clc1ccc(-c2noc(CN3CCOCC3)n2)cc1 | > 42
3 | O=C(O)CC/C(=N\NC(=O)CNC(=O)/C=C/c1ccccc1)c1ccccc1 | > 56.9
4 | CCc1ccc(OCC(=O)N2CC(C(=O)OC)Oc3ccccc32)cc1 (stereo not given) | 36.6 (≈ 103 µM)
5 | O=C(COc1ncnc2ccccc12)N1CCN(c2ccccc2)CC1 | > 52.3
6 | CCCc1cc(=O)[nH]c(SCC(=O)Nc2ccc(N3CCCCC3)cc2)n1 | 16.6 (≈ 42.9 µM)
7 | CC(=O)c1cccc(Nc2nc(-c3sc(C)nc3C)cs2)c1 | 1 (≈ 3.04 µM)
8 | O=C(NCc1ccccc1F)C1CCCN1C(=O)Nc1cccc(F)c1 (stereo not given) | > 53.9
9 | COc1cccc(C(=O)Nc2cccc3c2ccc2cccn23)c1 | 1.3 (≈ 4.11 µM)
10 | COc1ccccc1NC(=O)N1CCN(c2ccnc3cc(Cl)ccc23)CC1 | 18.5 (≈ 46.6 µM)
11 | O=C(CC1C(=O)NCCN1Cc1cccc(F)c1)NC1CCC1 (stereo not given) | 42 (≈ 132 µM)
12 | COc1ccc(NS(=O)(=O)c2cc(NC(=O)[C@H](C)NC(N)=O)ccc2N2CCCC2)cc1 | > 69.2
13 | Cc1cc(C)nc(Nc2ccc(Br)cc2C(=O)O)n1.Cl | > 53.8
14 | COc1ccc(Cn2c(=O)cc(C)[nH]c2=S)cc1 | 20.2 (≈ 77 µM)
15 | CCn1c(=O)c(C(=O)NC(C)c2ccccc2)c(O)c2ccccc21 (stereo not given) | < 0.4
16 | O=S(=O)(Nc1ccncc1Cl)c1cccc(Cl)c1Cl | > 50.6
17 | N#C/C(=C\c1ccc(OCC(N)=O)cc1)C(=O)NC1CC1 | > 42.8
18 | Cc1cc(C(F)(F)F)nc(SCC(=O)NC2CCCCC2)n1 | 33.2 (≈ 99.6 µM)
19 | Cc1cccc(C)c1NC(=O)CN1C(=O)COc2ccccc21 | 6 (≈ 19.3 µM)
20 | CCCN(CC1CC1)C(=O)COC(=O)c1ccc(C)cc1O | > 45.8
21 | Cc1ncc([N+](=O)[O-])n1CC(=O)Nc1cc(Cl)ccc1Cl | 0.9 (≈ 2.73 µM)
22 | COc1ccccc1-c1noc(CCCC(=O)NC2CCCC2)n1 | 44.4 (≈ 135 µM)

Row | Structure (SMILES) | solubility kinetic [µg/mL]
23 | CC(=O)c1c(C)cc(C)c(CSc2ccccn2)c1C | 20.5 (≈ 71.8 µM)
24 | Cc1cc(C)c2c(NC(=O)CCl)nn(C)c2n1 | > 37.9
25 | O=C(NCC1CC1)Nc1cccc(C(F)(F)F)c1 | 29.3 (≈ 113 µM)
26 | NC(=O)C1CCN(c2nc3ccccc3nc2NS(=O)(=O)c2ccc(Br)cc2)CC1 | 53.9 (≈ 110 µM)
27 | COc1ccc(NC(C)=O)cc1NC(=O)c1ccc(C#N)cc1 | > 46.4
28 | O=S(=O)(NCCc1ccccc1)c1ccc(Br)cc1 | 3.5 (≈ 10.3 µM)
29 | CC(Sc1ccc(S(=O)(=O)N2CCCC2)cn1)C(N)=O (stereo not given) | > 47.3
30 | COc1ccc(NC(=O)Nc2ccc(Br)c(C)c2)cc1 | < 0.4
31 | Cc1ccc(F)cc1NC(=O)CSc1ncccn1 | > 41.6
32 | CCOc1ccc(NCc2cc3cc(OC)ccc3[nH]c2=O)cc1 | 2.1 (≈ 6.47 µM)
33 | COc1cccc(NC(=O)CN2C(=O)NC3(CCCCCC3)C2=O)c1 | > 51.8
34 | CCCNC(=O)NC(=O)CSc1cccc(C(F)(F)F)c1 | 12.9 (≈ 40.3 µM)
35 | O=S(=O)(Cc1noc(-c2ccccc2Cl)n1)c1ccccn1 | 37.2 (≈ 111 µM)
36 | CNc1nc(-c2ccc(OC)cc2)c(-c2ccc(OC)cc2)s1 | 1.8 (≈ 5.51 µM)
37 | COc1ccc(C(C)NC(=O)Cc2cccs2)cc1 (stereo not given) | 37.1 (≈ 135 µM)
38 | Cc1ccc(S(=O)(=O)N2CCCCC2)c2nsnc12 | 31.9 (≈ 107 µM)
39 | O=C(O)c1ccc2c(c1)C(=O)N(c1nccs1)C2=O | > 41.1
40 | O=C(c1sccc1Cl)N1CCN(Cc2ccc3c(c2)OCO3)CC1 | > 54.7
41 | CCCNC(=O)CN(C)CC(=O)Nc1ccccc1C#N | > 43.3
42 | CC(C)c1ccc(Nc2c([N+](=O)[O-])c(=O)n(C)c3ccccc23)cc1 | < 0.2
43 | COc1ccc(C(=O)N2CCN(C(=O)C3CCCO3)CC2)cc1[N+](=O)[O-] (stereo not given) | > 54.5
44 | Cc1ccccc1C(C)NS(=O)(=O)c1ccc2c(c1)OCCO2 (stereo not given) | > 50

Row | Structure (SMILES) | solubility kinetic [µg/mL]
45 | CC(OC(=O)Cc1ccc(Br)cc1)C(=O)NC1CCCC1 (stereo not given) | 48.7 (≈ 137 µM)
46 | Cc1cc(C)cc(Nc2nc3ccccc3c(=O)[nH]2)c1 | 0.2 (≈ 0.754 µM)
47 | O=C(COc1ccc(/C=C\[N+](=O)[O-])cc1)N1CCOCC1 | 31.7 (≈ 108 µM)
48 | O=S(=O)(Nc1ccccc1)c1ccc2c(c1)CCO2 | 37.7 (≈ 137 µM)
49 | CC1CC(C)CN(C(=O)COC(=O)c2c[nH]c3ccccc23)C1 (stereo not given) | 12.7 (≈ 40.4 µM)
50 | CCOc1ccc(S(=O)(=O)NC(C)C(=O)NCc2ccncc2)cc1 (stereo not given) | > 54.5
51 | COc1ccc(/C=C2\SC(=S)N(CC3CCCO3)C2=O)cc1 (stereo not given) | < 0.7
52 | CC(=O)Nc1ccc(S(=O)(=O)N2CCCCC2C(=O)O)cc1 (stereo not given) | 44.4 (≈ 136 µM)
53 | Cc1cc(Cl)ccc1NC(=S)NCCc1ccc(Cl)cc1 | < 0.4
54 | CN(c1ccc([N+](=O)[O-])cc1C(N)=O)C1CCCCC1 | 38.3 (≈ 138 µM)
55 | CCOc1ccc2nc(S(N)(=O)=O)sc2c1 | > 38.7
56 | COc1ccc(OC)c(Nc2nc(N)nc(CCl)n2)c1 | 22.4 (≈ 75.7 µM)
57 | Cc1ccc2ncnc(Oc3ncccc3[N+](=O)[O-])c2c1 | 34.7 (≈ 123 µM)
58 | CCOC(=O)c1sc(Nc2nc(C)cc(OC)n2)nc1C | 5.1 (≈ 16.5 µM)
59 | COc1ccc(CC(=O)Nc2ccncc2Cl)cc1 | > 41.5
60 | O=C1NC(=O)N(Cc2ccccc2)C(=O)/C1=C/C=C/c1ccco1 | 8.8 (≈ 27.3 µM)
61 | COc1ccc(NC(C)=O)cc1CP(=O)(c1ccccc1)c1ccccc1 | > 56.9
62 | COc1ccc(C(=O)C2CCCN(CCO)C2)c(C)c1 (stereo not given) | 30.3 (≈ 109 µM)
63 | Cc1cc(C)c2c(N)c(C(=O)N3CCc4ccccc4C3)sc2n1 | 5.5 (≈ 16.3 µM)
64 | CCCCCC1C/C(=N\O)C=C(C)C1C(=O)OC (stereo not given) | > 38
65 | COC(=O)c1ccc(C2NC(=O)c3c(sc(C)c3C)N2)cc1 (stereo not given) | 14.5 (≈ 45.8 µM)
66 | CCc1ccccc1N1CN(Cc2cccnc2)CNC1=S | > 46.9

Row | Structure (SMILES) | solubility kinetic [µg/mL]
67 | O=C(OCC(=O)N1CCN(c2ccccc2)CC1)c1ccncc1 | > 48.8
68 | Cc1csc(NC(=O)c2cccnc2)n1 | 32.5 (≈ 148 µM)
69 | O=c1ncn(-c2cccc(Cl)c2)c2ccccc12 | 38 (≈ 148 µM)
70 | O=C(NCC(c1ccc(F)cc1)N1CCOCC1)c1ccc(-c2ccccc2)cc1 (stereo not given) | 3.2 (≈ 7.91 µM)
71 | Br.CCc1ccc(C2=CSC3=NCCN23)cc1 | > 46.7
72 | CCNc1nc(OC)nc(SCC(=O)Nc2ccccc2)n1 | > 47.9
73 | Cc1ccc(C)c(NC(=O)C(CC(=O)O)Cc2ccccc2)c1 (stereo not given) | > 46.7
74 | COc1ccc(OC)c(CCNC(=O)CCc2cn(C)c3ccccc23)c1 | 30.6 (≈ 83.5 µM)
75 | O=C(O)c1cc(S(=O)(=O)N2CCCCC2)ccc1N1CCCC1 | > 50.8
76 | CC1CCCN(C(=O)COC(=O)c2cc(Br)ccc2O)C1 (stereo not given) | 40.1 (≈ 113 µM)
77 | COc1cccc(Nc2ccc(-n3ccnc3)nn2)c1 | > 40.1
78 | Nc1cc(N2CCCC2)ccc1[N+](=O)[O-] | 2.8 (≈ 13.5 µM)
79 | CCN(CC)Cc1c(O)ccc2occ(C(=O)c3ccccc3)c12 | 37.7 (≈ 117 µM)
80 | CC(=O)Nc1ccc(C(=O)Nc2cc(C)on2)cc1 | > 38.9
81 | COc1ccc(CNC(=O)c2sc(=S)n(-c3ccccc3)c2N)cc1 | 0.7 (≈ 1.88 µM)
82 | CSc1cccc(NC(=O)CC(C)n2ccnc2)c1 (stereo not given) | > 41.3
83 | COc1ccc(CN2CCCCCC2)cc1 | 26.2 (≈ 119 µM)
84 | O=C(Nc1ccc(Nc2ccccc2)cc1)c1ccc(Cl)cc1[N+](=O)[O-] | < 0.3
85 | CCOC(=O)/C(=C\c1ccc(OC)c(OC)c1)C(=O)c1cccnc1 | > 51.2
